Assay results from US12378224B2 (Dong-A Socio Holdings Co., Ltd., priority 2016, dated 2025).
Like-named read-outs stand apart in the source and are kept apart here.

Tests used:
[1] = target: BCR fusion to kinase domain of MerTK (Ba/F3-MerTK) (Homo sapiens, UniProt Q12866); experiment: In Cell TAM Kinase Assay Using BaF3 Cellular System; assay type: cell-based, murine; details: Ba/F3 BCR-kinase fusion proliferation, 72 hours, Cell Titer Glo, kinase not given
Text: Three Ba/F3 cell lines (a murine IL-3 dependent pro-B cell line) expressing BCR fusions to the kinase domains of either MerTK (Ba/F3-MerTK), Axl (Ba/F3-Axl), or Tyro3 (Ba/F3-Tyro3) were purchased from Advanced Cellular Dynamics. The IL-3 independence of all 3 cell lines was confirmed. After thawing, the 3 Ba/F3 cell lines were split and maintained in cell culture media, which consisted of RPMI-1640-HEPES (Thermo-Cat #22400-089) with 1× Glutamax (Thermo-Cat #35050-061) and 10% FBS (Sigma-Cat #F4135 (500 ml), at a cell density range of 0.05×10^6−1×10^6 cells/mL 4 days before used in the routine screen. Compound plates were prepared using Nunc™ white 384-well optical bottom plates (ThermoFisher, USA) with compound in 25 nL dimethyl sulfoxide in each well. For routine assays, each of the 3 Ba/F3 cell lines was seeded at 1,000 cells per well with 25 µL of cell culture media directly into 384-well compound plates and incubated for 72 hours. Cell proliferation was then measured by adding 25 μL of Cell Titer Glo 2.0 (Promega, USA). After incubating with Cell Titer Glo at room temperature for 30 mins, the luminescence intensity, which quantifies the cell viability, was measured using an Envision™ plate reader (PerkinElmer, USA). […] In the presence of IL-3, the proliferation of the Ba/F3-Tyro3 cells is no longer dependent on the Tyro3 kinase activity.

human MER (528-end) = human MER (528-end) (Homo sapiens (Human), UniProt Q12866); experiment: HTRF Kinase Activity Biochemical Assay (KinEASE-TK); details: 10 uM ATP
Method in brief: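 Recombinant human MER (528-end) phosphorylated biotin-TK peptide substrate, 1 h at room temperature. Reaction stopped with detection buffer containing 0.375 nM Eu3+-cryptate anti-TK antibody and 0.062 uM streptavidin-XL665, 1 h further. Activity taken as HTRF ratio 665/620 nm ×10,000, 340 nm excitation.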

BCR fusion to kinase domain of MerTK (Ba/F3-MerTK), sequence (Q12866 21-999 limits assumed, stated change not applied): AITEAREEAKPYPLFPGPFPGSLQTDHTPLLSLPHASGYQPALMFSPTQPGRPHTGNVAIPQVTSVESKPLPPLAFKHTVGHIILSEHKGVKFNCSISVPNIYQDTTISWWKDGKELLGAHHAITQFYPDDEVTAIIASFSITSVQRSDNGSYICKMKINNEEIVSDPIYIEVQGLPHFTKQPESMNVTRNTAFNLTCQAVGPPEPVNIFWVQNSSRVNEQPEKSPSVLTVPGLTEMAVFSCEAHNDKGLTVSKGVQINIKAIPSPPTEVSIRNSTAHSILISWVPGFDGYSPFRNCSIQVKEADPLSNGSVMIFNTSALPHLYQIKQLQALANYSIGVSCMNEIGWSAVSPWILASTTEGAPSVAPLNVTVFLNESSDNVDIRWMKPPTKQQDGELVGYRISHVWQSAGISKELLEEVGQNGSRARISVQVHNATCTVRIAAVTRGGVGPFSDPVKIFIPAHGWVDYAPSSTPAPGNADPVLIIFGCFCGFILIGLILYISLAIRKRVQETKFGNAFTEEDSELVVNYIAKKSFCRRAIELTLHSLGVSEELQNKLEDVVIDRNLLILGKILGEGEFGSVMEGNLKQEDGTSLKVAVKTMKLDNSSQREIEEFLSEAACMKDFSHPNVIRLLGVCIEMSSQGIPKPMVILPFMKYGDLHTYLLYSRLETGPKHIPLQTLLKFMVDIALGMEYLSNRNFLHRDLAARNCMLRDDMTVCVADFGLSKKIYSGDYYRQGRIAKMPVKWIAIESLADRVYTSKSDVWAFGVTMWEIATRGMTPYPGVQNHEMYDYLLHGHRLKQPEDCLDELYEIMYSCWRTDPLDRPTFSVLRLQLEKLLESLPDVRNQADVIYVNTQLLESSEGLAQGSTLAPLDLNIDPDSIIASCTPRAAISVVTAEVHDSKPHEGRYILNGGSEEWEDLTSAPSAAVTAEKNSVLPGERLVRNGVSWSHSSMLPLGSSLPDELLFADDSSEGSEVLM
human MER (528-end), sequence (Q12866 528-999 limits assumed): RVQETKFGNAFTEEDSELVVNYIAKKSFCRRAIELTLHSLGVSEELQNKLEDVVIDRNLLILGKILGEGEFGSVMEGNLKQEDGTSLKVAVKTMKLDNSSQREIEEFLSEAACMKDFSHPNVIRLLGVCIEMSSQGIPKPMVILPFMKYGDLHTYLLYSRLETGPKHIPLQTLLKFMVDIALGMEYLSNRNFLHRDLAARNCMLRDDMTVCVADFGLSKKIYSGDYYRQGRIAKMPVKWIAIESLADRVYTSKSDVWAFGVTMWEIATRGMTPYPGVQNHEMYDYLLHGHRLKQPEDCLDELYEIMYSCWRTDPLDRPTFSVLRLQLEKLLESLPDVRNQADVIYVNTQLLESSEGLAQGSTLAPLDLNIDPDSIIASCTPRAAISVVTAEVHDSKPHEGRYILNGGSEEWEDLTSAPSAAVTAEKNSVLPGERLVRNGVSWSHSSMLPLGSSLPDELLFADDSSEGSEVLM

Row | Compound | IC50 ([1]; read-out: IC50) [nM] | IC50 (human MER (528-end)) [nM] | IC50 [1] [nM]
1 | CN1CC=C(c2ccc(C(=O)N3CC[C@@H](NC(=O)c4cc(-c5cnn(C)c5)cnc4N)C3)cc2)CC1 [Example 754, (R)-2-amino-N-(1-(4-(1-methyl-1,2,3,6-tetrahydropyridin-4-yl)benzoyl)pyrrolidin-3-yl)-5-(1-methyl-1H-pyrazol-4-yl)nicotinamide] | > 1000 | > 1000 | –
2 | Cn1cc(-c2cnc(N)c(C(=O)N[C@@H]3CCN(C(=O)c4ccc(-c5ccc(Cl)c(F)c5)cc4)C3)c2)cn1 [Example 661, (R)-2-amino-N-(1-(4′-chloro-3′-fluoro-[1,1′-biphenyl]-4-carbonyl)pyrrolidin-3-yl)-5-(1-methyl-1H-pyrazol-4-yl)nicotinamide] | 500 to 1000 | 10 to 100 | –
3 | Cn1cc(-c2cnc(N)c(C(=O)N[C@@H]3CCN(C(=O)c4ccc(-c5ccc(CC6CCN(CCO)CC6)cc5)cc4)C3)c2)cn1 [Example 819, (R)-2-amino-N-(1-(4′-((1-(2-hydroxyethyl)piperidin-4-yl)methyl)-[1,1′-biphenyl]-4-carbonyl)pyrrolidin-3-yl)-5-(1-methyl-1H-pyrazol-4-yl)nicotinamide] | > 1000 | 10 to 100 | –
4 | Cc1cccc(-c2ccc(C(=O)N3CC[C@@H](NC(=O)c4cc(-c5cnn(C)c5)cnc4N)C3)cc2)c1 [Example 656, (R)-2-amino-5-(1-methyl-1H-pyrazol-4-yl)-N-(1-(3′-methyl-[1,1′-biphenyl]-4-carbonyl)pyrrolidin-3-yl)nicotinamide] | < 100 | 10 to 100 | –
5 | Cn1cc(-c2cnc(N)c(C(=O)N[C@@H]3CCN(C(=O)c4cc5ccccc5n4C)C3)c2)cn1 [Example 695, (R)-2-amino-N-(1-(1-methyl-1H-indole-2-carbonyl)pyrrolidin-3-yl)-5-(1-methyl-1H-pyrazol-4-yl)nicotinamide] | > 1000 | > 1000 | –
6 | Cn1cc(-c2cnc(N)c(C(=O)N[C@@H]3CCN(C(=O)c4ccc5cc(NC6CCNCC6)ccc5c4)C3)c2)cn1 [Example 816, (R)-2-amino-5-(1-methyl-1H-pyrazol-4-yl)-N-(1-(6-(piperidin-4-ylamino)-2-naphthoyl)pyrrolidin-3-yl)nicotinamide] | > 1000 | 100 to 1000 | –
7 | CN1CCC(Oc2ccc(-c3ccc(C(=O)N4CC[C@@H](NC(=O)c5cc(-c6cnn(C)c6)cnc5N)C4)cc3)cc2)CC1 [Example 809, (R)-2-amino-5-(1-methyl-1H-pyrazol-4-yl)-N-(1-(4′-((1-methylpiperidin-4-yl)oxy)-[1,1′-biphenyl]-4-carbonyl)pyrrolidin-3-yl)nicotinamide] | > 1000 | 10 to 100 | –
8 | CCn1c(C(=O)N2CC[C@@H](NC(=O)c3cc(-c4cnn(C)c4)cnc3N)C2)cc2ccccc21 [Example 701, (R)-2-amino-N-(1-(1-ethyl-1H-indole-2-carbonyl)pyrrolidin-3-yl)-5-(1-methyl-1H-pyrazol-4-yl)nicotinamide] | > 1000 | > 1000 | –
9 | Cn1cc(-c2cnc(N)c(C(=O)N[C@@H]3CCN(C(=O)c4ccc(-c5ccc(C=O)cc5)cc4)C3)c2)cn1 [Example 381, (R)-2-amino-N-(1-(4′-formyl-[1,1′-biphenyl]-4-carbonyl)pyrrolidin-3-yl)-5-(1-methyl-1H-pyrazol-4-yl)nicotinamide] | > 1000 | 100 to 1000 | –
10 | Cn1cc(-c2cnc(N)c(C(=O)N[C@@H]3CCN(C(=O)c4ccc(-c5ccc(Oc6ccc(C=O)cc6)cc5)cc4)C3)c2)cn1 [Example 811, (R)-2-amino-N-(1-(4′-(4-formylphenoxy)-[1,1′-biphenyl]-4-carbonyl)pyrrolidin-3-yl)-5-(1-methyl-1H-pyrazol-4-yl)nicotinamide] | > 1000 | 10 to 100 | –
11 | Cn1cc(-c2cnc(N)c(C(=O)N[C@@H]3CCN(C(=O)c4cc5c(C(F)(F)F)ccc(Cl)c5[nH]4)C3)c2)cn1 [Example 704, (R)-2-amino-N-(1-(7-chloro-4-(trifluoromethyl)-1H-indole-2-carbonyl)pyrrolidin-3-yl)-5-(1-methyl-1H-pyrazol-4-yl)nicotinamide] | > 1000 | > 1000 | –
12 | Cn1cc(-c2cnc(N)c(C(=O)N[C@@H]3CCN(C(=O)c4ccc(-c5cccc(F)c5Cl)cc4)C3)c2)cn1 [Example 673, (R)-2-amino-N-(1-(2′-chloro-3′-fluoro-[1,1′-biphenyl]-4-carbonyl)pyrrolidin-3-yl)-5-(1-methyl-1H-pyrazol-4-yl)nicotinamide] | 500 to 1000 | 10 to 100 | –
13 | Cn1cc(-c2cnc(N)c(C(=O)NC[C@H]3CCCN3C(=O)c3cccc(-c4ccccc4)c3)c2)cn1 [Example 737, (R)—N-((1-([1,1′-biphenyl]-3-carbonyl)pyrrolidin-2-yl)methyl)-2-amino-5-(1-methyl-1H-pyrazol-4-yl)nicotinamide] | > 1000 | > 1000 | –
14 | Cn1cc(-c2cnc(N)c(C(=O)N[C@@H]3CCN(C(=O)c4ccc(-c5ccc(O)nc5)cc4)C3)c2)cn1 [Example 749, (R)-2-amino-N-(1-(4-(6-hydroxypyridin-3-yl)benzoyl)pyrrolidin-3-yl)-5-(1-methyl-1H-pyrazol-4-yl)nicotinamide] | > 1000 | > 1000 | –
15 | Cn1cc(-c2cnc(N)c(C(=O)N[C@@H]3CCN(C(=O)c4c[nH]c(=O)n(-c5ccc(F)cc5)c4=O)C3)c2)cn1 [Example 707, (R)-2-amino-N-(1-(3-(4-fluorophenyl)-2,4-dioxo-1,2,3,4-tetrahydropyrimidine-5-carbonyl)pyrrolidin-3-yl)-5-(1-methyl-1H-pyrazol-4-yl)nicotinamide] | > 1000 | > 1000 | –
16 | Cn1cc(-c2cnc(N)c(C(=O)N[C@@H]3CCN(C(=O)c4ccc(-c5ccc(C(=O)N6CCC(=O)CC6)cc5)cc4)C3)c2)cn1 [Example 679, (R)-2-amino-5-(1-methyl-1H-pyrazol-4-yl)-N-(1-(4′-(4-oxopiperidine-1-carbonyl)-[1,1′-biphenyl]-4-carbonyl)pyrrolidin-3-yl)nicotinamide] | – | > 1000 | > 1000
17 | Cn1cc(-c2cnc(N)c(C(=O)N[C@@H]3CCN(C(=O)c4ccc(-c5ccc(Oc6ccc(CN)cc6)cc5)cc4)C3)c2)cn1 [Example 634, (R)-2-amino-N-(1-(4′-(4-(aminomethyl)phenoxy)-[1,1′-biphenyl]-4-carbonyl)pyrrolidin-3-yl)-5-(1-methyl-1H-pyrazol-4-yl)nicotinamide] | 500 to 1000 | < 10 | –
18 | CN(c1ccc(-c2ccc(C(=O)N3CC[C@@H](NC(=O)c4cc(-c5cnn(C)c5)cnc4N)C3)cc2)cc1)c1ccc(N)cc1Cl [Example 837, (R)-2-amino-N-(1-(4′-((4-amino-2-chlorophenyl)(methyl)amino)-[1,1′-biphenyl]-4-carbonyl)pyrrolidin-3-yl)-5-(1-methyl-1H-pyrazol-4-yl)nicotinamide] | > 1000 | 100 to 1000 | –
19 | (R)-2-amino-N-(1-(4′-(4-hydroxyphenoxy)-[1,1′-biphenyl]-4-carbonyl)pyrrolidin-3-yl)-5-(1-methyl-1H-pyrazol-4-yl)nicotinamide [Example 800] | > 1000 | 10 to 100 | –
20 | Cn1cc(-c2cnc(N)c(C(=O)N[C@@H]3CCN(C(=O)c4ccc(-c5ccc(Oc6cccnc6)cc5)cc4)C3)c2)cn1 [Example 802, (R)-2-amino-5-(1-methyl-1H-pyrazol-4-yl)-N-(1-(4′-(pyridin-3-yloxy)-[1,1′-biphenyl]-4-carbonyl)pyrrolidin-3-yl)nicotinamide] | > 1000 | 100 to 1000 | –
21 | Cn1cc(-c2cnc(N)c(C(=O)N[C@@H]3CCN(C(=O)c4ccc5cc(NC6CCN(CCO)CC6)ccc5c4)C3)c2)cn1 [Example 817, (R)-2-amino-N-(1-(6-((1-(2-hydroxyethyl)piperidin-4-yl)amino)-2-naphthoyl)pyrrolidin-3-yl)-5-(1-methyl-1H-pyrazol-4-yl)nicotinamide] | > 1000 | 100 to 1000 | –
22 | Cn1cc(-c2cnc(N)c(C(=O)N[C@@H]3CCN(C(=O)c4ccc5c(ccn5CC5CCNCC5)c4)C3)c2)cn1 [Example 709, (R)-2-amino-5-(1-methyl-1H-pyrazol-4-yl)-N-(1-(1-(piperidin-4-ylmethyl)-1H-indole-5-carbonyl)pyrrolidin-3-yl)nicotinamide] | > 1000 | 100 to 1000 | –
23 | CN1CCC(N(C)c2ccc3cc(C(=O)N4CC[C@@H](NC(=O)c5cc(-c6cnn(C)c6)cnc5N)C4)ccc3c2)CC1 [Example 644, (R)-2-amino-N-(1-(6-(methyl(1-methylpiperidin-4-yl)amino)-2-naphthoyl)pyrrolidin-3-yl)-5-(1-methyl-1H-pyrazol-4-yl)nicotinamide] | 100 to 500 | 10 to 100 | –
